Assay results as given in patent US20120197004A1, “NOVEL ANTI-MICROBIAL PEPTIDOMIMETIC COMPOUNDS AND METHODS TO CALCULATE ANTI-MICROBIAL ACTIVITY” (priority 2006, published 2012).
Converted amounts (≈) assume the structure as drawn. Where two headings read alike, the source gives them in different places. Where a SMILES comes first, the peptide text is derived from it. [ ]: non-standard residue; d: D form. The star is where a group is joined. ξ: configuration not given here. Biotin = O=C1N[C@H]2[C@H](CS[C@H]2CCCCC(=O)*)N1; Oic = O=C(O)[C@@H]1C[C@@H]2CCCC[C@@H]2N1; Tic = O=C(O)[C@@H]1Cc2ccccc2CN1; ξTic = O=C(O)C1Cc2ccccc2CN1; ξOic = O=C(O)C1CC2CCCCC2N1; Orn = NCCC[C@H](N)C(=O)O; NH(CH2)3NH2 = NCCCN*; GABA = NCCCC(=O)O

Legend:
[1] = test system: Bacillus subtillis (ATCC 43223); settings: for p(MIC) Bacillus Subtillis: -log(MIC)
[2] = test system: Mycobacterium ranae (ATCC 110)
[3] = test system: Staphylococcus aureus Methicillin/Gentamicin/Tetracycline Resistant (ATCC 33592); settings: for p(MIC) Staphylococcus aureus ME/GM/TC resistant: -log(MIC); for Minimum Inhibitory Concentration Staphylococcus aureus ME/GM/TC resistant: in vitro MIC, tested at 100, 30, 10, 3, 1, 0.3 and 0.1 μM in 1% DMSO; for Actual Bioactivity: p(MIC) used in Staphylococcus aureus QSAR model; for MIC Staphylococcus aureus ME/GM/TC resistant: Minimal Inhibitory Concentration, tested at 100-0.1 in 1% DMSO
[4] = test system: Salmonella typhimurium (ATCC 13311); settings: for p(MIC) Salmonella typhimurium: -log(MIC)
in vitro [5] = settings: mouse, microsomes, pH 7.4
in vitro [6] = settings: rat, microsomes, pH 7.4
in vitro [7] = settings: dog, microsomes, pH 7.4
in vitro [8] = settings: monkey, microsomes, pH 7.4

Compound | % hemolysis 100/25 μM (first value) (red blood cells) [%/] | % hemolysis 100/25 μM (second value) (red blood cells) [%] | p(MIC) Bacillus Subtillis [1] | MIC Bacillus Subtillis ([1]; ATCC 43223) [µM] | Actual Bioactivity [2] | MIC Mycobacterium ranae ([2]; ATCC 110) [µM] | Minimum Inhibitory Concentration Mycobacterium ranae ([2]; ATCC 110) [µM] | p(MIC) Staphylococcus aureus ME/GM/TC resistant [3] | Minimum Inhibitory Concentration Staphylococcus aureus ME/GM/TC resistant [3] [µM] | Actual Bioactivity [3] | p(MIC) Salmonella typhimurium [4] | MIC Salmonella typhimurium ([4]; ATCC 13311) [µM] | other results
NCCCC[C@H](NC(=O)[C@H](CCCCN)NC(=O)[C@H](CCCCN)NC(=O)[C@H](CCCCN)NC(=O)[C@@H]1Cc2ccccc2CN1C(=O)[C@H](CCCCN)NC(=O)CNC(=O)[C@@H]1C[C@@H]2CCCC[C@@H]2N1C(=O)[C@@H]1Cc2ccccc2CN1C(=O)[C@H](Cc1ccccc1)NC(=O)CNC(=O)[C@@H]1C[C@@H]2CCCC[C@@H]2N1C(=O)[C@@H]1Cc2ccccc2CN1C(=O)[C@H](CCCCN)NC(=O)CNC(=O)[C@@H]1C[C@@H]2CCCC[C@@H]2N1C(=O)[C@@H]1Cc2ccccc2CN1C(=O)[C@H](Cc1ccccc1)NC(=O)CN)C(N)=O [FKAB-1Ga, NH2--GF-Tic-Oic-GK-Tic-Oic-GF-Tic-Oic-GK-Tic-KKKK-CONH2] (H-GF[Tic][Oic]GK[Tic][Oic]GF[Tic][Oic]GK[Tic]KKKK-NH2) | 33.4 | 14.3 | 6.00 | 1.00 (≈ 2.4 µg/mL) | 5.000 | 10.00 (≈ 24 µg/mL) | 10 | 5.00 | 10 | 5.000 | 5.52 | 3 (≈ 7.2 µg/mL) | 
CC(=O)NCC(=O)N[C@@H](Cc1ccccc1)C(=O)N1Cc2ccccc2C[C@H]1C(=O)N1[C@H](C(=O)NCC(=O)N[C@@H](CCCCN)C(=O)N2Cc3ccccc3C[C@H]2C(=O)N2[C@H](C(=O)NCC(=O)N[C@@H](Cc3ccccc3)C(=O)N3Cc4ccccc4C[C@H]3C(=O)N3[C@H](C(=O)NCC(=O)N[C@@H](CCCCN)C(=O)N4Cc5ccccc5C[C@H]4C(=O)N[C@@H](CCCCN)C(=O)N[C@@H](CCCCN)C(=O)N[C@@H](CCCCN)C(=O)N[C@@H](CCCCN)C(=O)NCCCN)C[C@@H]4CCCC[C@@H]43)C[C@@H]3CCCC[C@@H]32)C[C@@H]2CCCC[C@@H]21 [FKAB-1L, Ac-GF-Tic-Oic-GK-Tic-Oic-GF-Tic-Oic-GK-Tic-KKKK-CONH—CH2—CH2—CH2—NH2] (Ac-GF[Tic][Oic]GK[Tic][Oic]GF[Tic][Oic]GK[Tic]KKKK-{NH(CH2)3NH2}) |  |  | 5.52 | 3.00 (≈ 7.49 µg/mL) | 5.000 | 10.00 (≈ 25 µg/mL) | 10 | 5.00 | 10 | 5.000 | 4.52 | 30 (≈ 74.9 µg/mL) | MIC Staphylococcus aureus ME/GM/TC resistant [3]: 10.00 µM (≈ 25 µg/mL)
CC(=O)NCC(=O)N[C@@H](Cc1ccccc1)C(=O)N1Cc2ccccc2C[C@H]1C(=O)N1[C@H](C(=O)NCC(=O)N[C@@H](CCCCN)C(=O)N2Cc3ccccc3C[C@H]2C(=O)N2[C@H](C(=O)NCC(=O)N[C@@H](Cc3ccccc3)C(=O)N3Cc4ccccc4C[C@H]3C(=O)N3[C@H](C(=O)NCC(=O)N[C@@H](CCCCN)C(=O)N4Cc5ccccc5C[C@H]4C(=O)N[C@@H](CCCN)C(=O)N[C@@H](CCCN)C(=O)N[C@@H](CCCN)C(=O)N[C@@H](CCCN)C(N)=O)C[C@@H]4CCCC[C@@H]43)C[C@@H]3CCCC[C@@H]32)C[C@@H]2CCCC[C@@H]21 [FKAB-1Gj, Ac-GF-Tic-Oic-GK-Tic-Oic-GF-Tic-Oic-GK-Tic-Orn-Orn-Orn-Orn-CONH2] (Ac-GF[Tic][Oic]GK[Tic][Oic]GF[Tic][Oic]GK[Tic][Orn][Orn][Orn][Orn]-NH2) |  |  | 6.00 | 1.00 (≈ 2.38 µg/mL) | 5.000 | 10.00 (≈ 23.8 µg/mL) |  | 5.00 | 10 | 5.000 | 5.00 | 10 (≈ 23.8 µg/mL) | Minimum Inhibitory Concentration Mycobacterium ranae [2]: 10 µM; MIC Staphylococcus aureus ME/GM/TC resistant [3]: 10.00 µM (≈ 23.8 µg/mL)
CC(=O)NCCCC(=O)N[C@@H](Cc1ccccc1)C(=O)N1Cc2ccccc2C[C@H]1C(=O)N1[C@H](C(=O)NCCCC(=O)N[C@@H](CCCCN)C(=O)N2Cc3ccccc3C[C@H]2C(=O)N2[C@H](C(=O)NCCCC(=O)N[C@@H](Cc3ccccc3)C(=O)N3Cc4ccccc4C[C@H]3C(=O)N3[C@H](C(=O)NCCCC(=O)N[C@@H](CCCCN)C(=O)N4Cc5ccccc5C[C@H]4C(=O)N[C@@H](CCCCN)C(=O)N[C@@H](CCCCN)C(=O)N[C@@H](CCCCN)C(=O)N[C@@H](CCCCN)C(=O)N[C@@H](CCCCN)C(N)=O)C[C@@H]4CCCC[C@@H]43)C[C@@H]3CCCC[C@@H]32)C[C@@H]2CCCC[C@@H]21 [FKAB-1Gd3, Ac-Gaba-F-Tic-Oic-Gaba-K-Tic-Oic-Gaba-F-Tic-Oic-Gaba-K-Tic-KKKKK-CONH2] (Ac-[GABA]F[Tic][Oic][GABA]K[Tic][Oic][GABA]F[Tic][Oic][GABA]K[Tic]KKKKK-NH2) | 29.7 | 10.5 |  | 1.00 (≈ 2.68 µg/mL) | 5.520 | 3.00 (≈ 8.04 µg/mL) |  | 4.52 |  | 4.520 |  | 10 (≈ 26.8 µg/mL) | Minimum Inhibitory Concentration Bacillus subtillis ([1]; ATCC 43223): 1 µM; Minimum Inhibitory Concentration Mycobacterium ranae [2]: 3 µM; selectivity for Mycobacterium ranae over Salmonella typhimurium ([2]; in vitro): 3 fold; Minimum Inhibitory Concentration Salmonella typhimurium ([4]; ATCC 13311): 10 µM
NCCCC[C@H](NC(=O)[C@H](CCCCN)NC(=O)[C@H](CCCCN)NC(=O)[C@H](CCCCN)NC(=O)C1Cc2ccccc2CN1C(=O)[C@H](CCCCN)NC(=O)CNC(=O)C1CC2CCCCC2N1C(=O)C1Cc2ccccc2CN1C(=O)[C@H](Cc1ccccc1)NC(=O)CNC(=O)C1CC2CCCCC2N1C(=O)C1Cc2ccccc2CN1C(=O)[C@H](CCCCN)NC(=O)CNC(=O)C1CC2CCCCC2N1C(=O)C1Cc2ccccc2CN1C(=O)[C@H](Cc1ccccc1)NC(=O)CNC(=O)CCCC[C@@H]1SC[C@@H]2NC(=O)N[C@@H]21)C(N)=O (stereo partly drawn) [FKAB-1Gl, Biotin-GF-Tic-Oic-GK-Tic-Oic-GF-Tic-Oic-GK-Tic-KKKK-CONH2] (Biotin-GF[ξTic][ξOic]GK[ξTic][ξOic]GF[ξTic][ξOic]GK[ξTic]KKKK-NH2) |  |  |  |  |  |  | 10 |  | 3 |  |  |  | remaining at 0.25 h, 1 μM (in vitro [5]): 96%; remaining at 0.5 h, 1 μM (in vitro [5]): 87%; remaining at 1 h, 1 μM (in vitro [5]): 78%; remaining at 0.25 h, 1 μM (in vitro [6]): 73%; remaining at 0.5 h, 1 μM (in vitro [6]): 83%; remaining at 1 h, 1 μM (in vitro [6]): 105%; remaining at 0.5 h, 1 μM (in vitro [7]): 84%; remaining at 1 h, 1 μM (in vitro [7]): 80%; remaining at 0.25 h, 1 μM (in vitro [8]): 80%; remaining at 0.5 h, 1 μM (in vitro [8]): 77%; remaining at 1 h, 1 μM (in vitro [8]): 77%
CC(=O)NCC(=O)N[C@@H](Cc1ccccc1)C(=O)N1Cc2ccccc2CC1C(=O)NCC(=O)NCC(=O)N[C@@H](CCCCN)C(=O)N1Cc2ccccc2CC1C(=O)NCC(=O)NCC(=O)N[C@@H](Cc1ccccc1)C(=O)N1Cc2ccccc2CC1C(=O)NCC(=O)NCC(=O)N[C@@H](CCCCN)C(=O)N1Cc2ccccc2CC1C(=O)N[C@@H](CCCCN)C(=O)N[C@@H](CCCCN)C(=O)N[C@@H](CCCCN)C(=O)N[C@@H](CCCCN)C(N)=O (some centres unmarked) [FKAB-1Gg1, Ac-GF-Tic-G-GK-Tic-G-GF-Tic-G-GK-Tic-KKKK-CONH2] (Ac-GF[ξTic]GGK[ξTic]GGF[ξTic]GGK[ξTic]KKKK-NH2) | 5.70 | 3.80 |  | 10.00 (≈ 21.6 µg/mL) |  | 30.00 (≈ 64.8 µg/mL) |  |  |  |  |  | 100 (≈ 216 µg/mL) | 
CC(=O)NCC(=O)N[C@@H](Cc1ccccc1)C(=O)NCC(=O)N1C(C(=O)NCC(=O)N[C@@H](CCCCN)C(=O)NCC(=O)N2C(C(=O)NCC(=O)N[C@@H](Cc3ccccc3)C(=O)NCC(=O)N3C(C(=O)NCC(=O)N[C@@H](CCCCN)C(=O)NCC(=O)N[C@@H](CCCCN)C(=O)N[C@@H](CCCCN)C(=O)N[C@@H](CCCCN)C(=O)N[C@@H](CCCCN)C(N)=O)CC4CCCCC43)CC3CCCCC32)CC2CCCCC21 (some centres unmarked) [FKAB-1Gf1, Ac-GF-G-Oic-GK-G-Oic-GF-G-Oic-GK-G-KKKK-CONH2] (Ac-GFG[ξOic]GKG[ξOic]GFG[ξOic]GKGKKKK-NH2) | 3.30 | 3.3 |  | 30.00 (≈ 61 µg/mL) |  | 100.00 (≈ 203 µg/mL) |  |  |  |  |  |  | 
